Experimental data from US20220340597A1, “HEXAHYDRO-1H-PYRAZINO[1,2-A]PYRAZINE COMPOUNDS FOR THE TREATMENT OF AUTOIMMUNE DISEASE” (Hoffmann-La Roche Inc., priority 2019, published 2022).

Molecular target: T1, human TLR9 (Homo sapiens, UniProt Q9NR96)
T1 construct: host or cells: HEK293 (HEK-Blue hTLR9)
T1 sequence (Q9NR96 26-1032): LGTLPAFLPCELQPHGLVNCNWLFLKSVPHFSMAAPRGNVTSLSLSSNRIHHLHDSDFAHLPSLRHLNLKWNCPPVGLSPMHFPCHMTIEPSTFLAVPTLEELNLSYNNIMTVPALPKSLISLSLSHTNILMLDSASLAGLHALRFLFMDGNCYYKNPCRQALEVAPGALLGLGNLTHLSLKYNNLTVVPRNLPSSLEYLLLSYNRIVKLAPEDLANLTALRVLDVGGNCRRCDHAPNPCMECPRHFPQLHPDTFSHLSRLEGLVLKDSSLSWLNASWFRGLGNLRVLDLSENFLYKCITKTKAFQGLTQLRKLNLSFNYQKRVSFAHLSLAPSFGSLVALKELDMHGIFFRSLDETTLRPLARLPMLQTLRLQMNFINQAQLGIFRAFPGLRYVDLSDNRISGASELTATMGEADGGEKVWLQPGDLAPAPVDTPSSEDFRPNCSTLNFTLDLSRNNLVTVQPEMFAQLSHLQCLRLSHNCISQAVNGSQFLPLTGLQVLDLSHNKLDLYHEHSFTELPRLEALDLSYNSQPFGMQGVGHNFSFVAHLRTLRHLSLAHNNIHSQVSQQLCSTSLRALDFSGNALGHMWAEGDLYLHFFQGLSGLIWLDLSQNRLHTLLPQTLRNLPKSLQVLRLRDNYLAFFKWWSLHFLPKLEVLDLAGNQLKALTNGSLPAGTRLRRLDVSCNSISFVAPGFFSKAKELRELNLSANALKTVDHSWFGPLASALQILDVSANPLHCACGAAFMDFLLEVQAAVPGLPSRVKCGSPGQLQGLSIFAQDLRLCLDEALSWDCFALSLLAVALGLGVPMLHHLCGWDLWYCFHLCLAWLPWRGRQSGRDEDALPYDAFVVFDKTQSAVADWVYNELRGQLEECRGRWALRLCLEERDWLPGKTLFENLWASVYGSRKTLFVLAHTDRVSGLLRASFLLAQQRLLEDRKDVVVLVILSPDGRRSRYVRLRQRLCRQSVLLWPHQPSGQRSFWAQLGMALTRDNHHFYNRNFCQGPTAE
Assay: HEK293-Blue-hTLR-9 cells assay
Format: cell-based
Details: HEK293-Blue-hTLR9 cells, ODN2006 stimulation, 20 hrs, SEAP reporter; read-out: HEK/hTLR9 IC50

| IC50 | Compound |
| --- | --- |
| 0.05 µM | C[C@@H]1CN(c2ccc(C#N)c3ncccc23)C[C@@H]2CN(CCc3ccc(N4CC(C)(N)C4)nc3)CCN21 [Example 65, 5-[(4R,9aS)-8-[2-[6-(3-amino-3-methyl-azetidin-1-yl)-3-pyridyl]ethyl]-4-methyl-3,4,6,7,9,9a-hexahydro-1H-pyrazino[1,2-a]pyrazin-2-yl]quinoline-8-carbonitrile] |
| 0.048 µM | C[C@@H]1CN(c2ccc(C#N)c3ncccc23)C[C@@H]2CN(CCc3ccc(N4C[C@@H](N)[C@@H](F)C4)cn3)CCN21 [Example 19, 5-[(4R,9aS)-8-[2-[5-[(3R,4S)-3-amino-4-fluoro-pyrrolidin-1-yl]-2-pyridyl]ethyl]-4-methyl-3,4,6,7,9,9a-hexahydro-1H-pyrazino[1,2-a]pyrazin-2-yl]quinoline-8-carbonitrile] |
| 0.043 µM | C[C@@H]1CN(c2ccc(C#N)c3ncccc23)C[C@@H]2CN(c3ccnc(N4CCOC[C@H](N)C4)c3)CCN21 [Example 54, 5-[(4R,9aS)-8-[2-[(6R)-6-amino-1,4-oxazepan-4-yl]-4-pyridyl]-4-methyl-3,4,6,7,9,9a-hexahydro-1H-pyrazino[1,2-a]pyrazin-2-yl]quinoline-8-carbonitrile] |
| 0.098 µM | C[C@@H]1CN(c2ccc(C#N)c3ncccc23)C[C@@H]2CN(CCc3ccc(N4CC5(CNCCO5)C4)cc3)CCN21 [Example 28, 5-[(4R,9aS)-4-methyl-8-[2-[4-(5-oxa-2,8-diazaspiro[3.5]nonan-2-yl)phenyl]ethyl]-3,4,6,7,9,9a-hexahydro-1H-pyrazino[1,2-a]pyrazin-2-yl]quinoline-8-carbonitrile] |
| 0.05 µM | Cc1nc(N2CC(C)(N)C2)ccc1CN1CCN2[C@@H](C1)CN(c1ccc(C#N)c3ncccc13)C[C@H]2C [Example 76, 5-[(4R,9aS)-8-[[6-(3-amino-3-methyl-azetidin-1-yl)-2-methyl-3-pyridyl]methyl]-4-methyl-3,4,6,7,9,9a-hexahydro-1H-pyrazino[1,2-a]pyrazin-2-yl]quinoline-8-carbonitrile] |
| 0.051 µM | [2H]c1ccc2c(N3C[C@@H]4CN(c5ccc(CCN6C[C@H](OC)[C@@H](N)C6)cn5)CCN4[C@@H](C)C3)ccc(C#N)c2n1 [Example 122, 5-[(4S,9aR)-8-[5-[2-[(3S,4S)-3-amino-4-methoxy-pyrrolidin-1-yl]ethyl]-2-pyridyl]-4-methyl-3,4,6,7,9,9a-hexahydro-1H-pyrazino[1,2-a]pyrazin-2-yl]-2-deuterio-quinoline-8-carbonitrile] |

Continued, molecule first:

| Compound | IC50 |
| --- | --- |
| C[C@@H]1CN(c2ccc(C#N)c3ncccc23)C[C@@H]2CN(c3ccnc(N4CCNCC4)n3)CCN21 [Example 33, 5-[(4R,9aR)-4-methyl-8-(2-piperazin-1-ylpyrimidin-4-yl)-3,4,6,7,9,9a-hexahydro-1H-pyrazino[1,2-a]pyrazin-2-yl]quinoline-8-carbonitrile] | 0.064 µM |
| C[C@@H]1CN(c2ccc(C#N)n3ncc(F)c23)C[C@@H]2CN(CCc3ccc(N4C[C@@H](N)[C@@H](F)C4)nc3)CCN21 [Example 75, 4-[(4R,9aS)-8-[2-[6-[(3R,4S)-3-amino-4-fluoro-pyrrolidin-1-yl]-3-pyridyl]ethyl]-4-methyl-3,4,6,7,9,9a-hexahydro-1H-pyrazino[1,2-a]pyrazin-2-yl]-3-fluoro-pyrazolo[1,5-a]pyridine-7-carbonitrile] | 0.065 µM |
| [2H]c1ccc2c(N3C[C@@H]4CN(c5ncc(C(=O)N6CC7(CN(C)C7)C6)cc5C)CCN4[C@@H](C)C3)ccc(C#N)c2n1 [Example 103, 5-[(4S,9aR)-4-methyl-8-[3-methyl-5-(6-methyl-2,6-diazaspiro[3.3]heptane-2-carbonyl)-2-pyridyl]-3,4,6,7,9,9a-hexahydro-1H-pyrazino[1,2-a]pyrazin-2-yl]-2-deuterio-quinoline-8-carbonitrile] | 0.087 µM |
| C[C@@H]1CN(c2ccc(C#N)c3ncccc23)C[C@@H]2CN(Cc3cnc4c(c3)CNCC4)CCN21 [Example 6, 5-[(4R,9aS)-4-methyl-8-(5,6,7,8-tetrahydro-1,6-naphthyridin-3-ylmethyl)-3,4,6,7,9,9a-hexahydro-1H-pyrazino[1,2-a]pyrazin-2-yl]quinoline-8-carbonitrile] | 0.069 µM |
| CO[C@@H]1CN(c2ccc(CCN3CCN4[C@@H](C3)CN(c3ccc(C#N)n5nccc35)C[C@H]4C)cc2)C[C@H]1N [Example 68, 4-[(4R,9aS)-8-[2-[4-[(3R,4R)-3-amino-4-methoxy-pyrrolidin-1-yl]phenyl]ethyl]-4-methyl-3,4,6,7,9,9a-hexahydro-1H-pyrazino[1,2-a]pyrazin-2-yl]pyrazolo[1,5-a]pyridine-7-carbonitrile] | 0.041 µM |
| [2H]c1ccc2c(N3C[C@@H]4CN(c5ncc(C(=O)N6CC7(CN(C)C7)C6)cc5C)CCN4[C@H](C)C3)ccc(C#N)c2n1 [Example 102, 5-[(4R,9aR)-4-methyl-8-[3-methyl-5-(6-methyl-2,6-diazaspiro[3.3]heptane-2-carbonyl)-2-pyridyl]-3,4,6,7,9,9a-hexahydro-1H-pyrazino[1,2-a]pyrazin-2-yl]-2-deuterio-quinoline-8-carbonitrile] | 0.154 µM |
| Cc1cc(N2CCN3[C@@H](C2)CN(c2ccc(C#N)c4ncccc24)C[C@H]3C)cc(N2CC(C)(N)C2)n1 [Example 73, 5-[(4R,9aS)-8-[2-(3-amino-3-methyl-azetidin-1-yl)-6-methyl-4-pyridyl]-4-methyl-3,4,6,7,9,9a-hexahydro-1H-pyrazino[1,2-a]pyrazin-2-yl]quinoline-8-carbonitrile] | < 0.032 µM |
| [2H]c1ccc2c(N3C[C@@H]4CN(c5ncc(N6C[C@H]7NCCO[C@@H]7C6)cc5C)CCN4[C@@H](C)C3)ccc(C#N)c2n1 [Example 114, 5-[(4S,9aR)-8-[5-[(4aR,7aR)-3,4,4a,5,7,7a-hexahydro-2H-pyrrolo[3,4-b][1,4]oxazin-6-yl]-3-methyl-2-pyridyl]-4-methyl-3,4,6,7,9,9a-hexahydro-1H-pyrazino[1,2-a]pyrazin-2-yl]-2-deuterio-quinoline-8-carbonitrile] | 0.11 µM |
| C[C@@H]1CN(c2ccc(C#N)c3ncccc23)C[C@@H]2CN(c3ccnc(N4CCNCC4)c3)CCN21 [Example 32, 5-[(4R,9aS)-4-methyl-8-(2-piperazin-1-yl-4-pyridyl)-3,4,6,7,9,9a-hexahydro-1H-pyrazino[1,2-a]pyrazin-2-yl]quinoline-8-carbonitrile] | 0.034 µM |
| C[C@@H]1CN(c2ccc(C#N)c3ncccc23)C[C@@H]2CN(Cc3ccc4c(c3)CCNC4)CCN21 [Example 10, 5-[(4R,9aS)-4-methyl-8-(1,2,3,4-tetrahydroisoquinolin-6-ylmethyl)-3,4,6,7,9,9a-hexahydro-1H-pyrazino[1,2-a]pyrazin-2-yl]quinoline-8-carbonitrile] | 0.043 µM |
